The values that follow come from publication PMC9530166, “Allosteric regulation of glycogen breakdown by the second messenger cyclic di-GMP” (Nature Communications, 2022).

For assay [1], the target named is T1, His6-GlgXEC (Escherichia coli, UniProt P15067).
T1 construct: made in house; host or cells: E. coli Rosetta (DE3), pET15b
Put plainly: DRaCALA with [32P]-c-di-GMP, E. coli GlgX. The settings on record: 15 µg E. coli His6-GlgX. The assay is classed as binding. The protocol: (§1) For DRaCALA assays, purified His6-GlgX (15 μg) was mixed with 0.5 μl undiluted [^32P]-c-di-GMP (42 nM) (Hartmann Analytic GmbH, Braunschweig) in binding buffer (25 mM Tris pH 8; 150 mM NaCl; 2.5% (v/v) glycerol; 5 mM MgCl2) and the reaction was incubated at rt for 5 min. For competition assays, 100 μM nonlabeled nucleotides were added to the samples and incubated at rt for 5 min prior to the addition of [^32P]-c-di-GMP. Reactions (10 μl) were spotted on the same nitrocellulose membrane (Roth), air dried for 10 min and analyzed via phosphorimaging.
(a) 15 µg of purified E. coli His6-GlgX
167 or His6-Vnz25270, respectively, were mixed with 0.5 µl of [32P]-c-di-GMP (Hartmann Analytic
168 GmbH, Braunschweig) in binding buffer (25 mM Tris pH 8.0, 150 mM NaCl, 2.5% (v/v) glycerol
169 and 5 mM MgCl2). 10 µL of the reactions were spotted on the same nitrocellulose membrane (Roth),
170 air dried for 10 min and analyzed by phosphorimaging. (b, c) 10 µM purified His6-Vnz25270 (b) or
171 His6-GlgXE.coli (c) in 25 mM Tris pH 8.0, 150 mM NaCl, 2.5% (v/v) glycerol and 5 mM MgCl2 were
172 incubated without or with (1 mM) c-di-GMP. Reactions were analyzed in a Tycho NT.6
173 (NanoTemper Technologies) device.
(§2) (1 picture or pasted object on this page, not shown here)

For assay [2], the system named is His6-GlgXDETR(49-52). Put plainly: DRaCALA with [32P]-c-di-GMP, RETD49-52 swap mutant. Type of assay: binding, Streptomyces venezuelae. Particulars: His6-GlgXDETR(49-52) mutant. The protocol: as §1
217 Supplementary Fig. 5: NanoDSF assays with mutagenized His6-GlgX variants. (a) Swap of the
219 This was confirmed by DRaCALA, right. For DRaCALA assays, 15 µg of purified E. coli His6-GlgX
220 or His6-Vnz25270, respectively, were mixed with 0.5 µl of [32P]-c-di-GMP (Hartmann Analytic
221 GmbH, Braunschweig) in binding buffer (25 mM Tris pH 8.0, 150 mM NaCl, 2.5% (v/v) glycerol
222 and 5 mM MgCl2). 10 µl of the reactions were spotted on the same nitrocellulose membrane (Roth),
223 air dried for 10 min and analyzed by phosphorimaging. (b) Changing the RLVD motif (amino acids
as §2

Assay [3] deals with GlgXR438A-R579A. Put plainly: Fluorescence polarization binding, GlgXR438A-R579A. Details: species or system Streptomyces venezuelae. An excerpt:
Fig. 5 Structure of the S. venezuelae GlgX-c-di-GMP complex. a Ribbon diagram of the S. venezuelae GlgX-c-di-GMP complex with one GlgX subunit colored cyan and the other salmon. Shown as sticks are the c-di-GMP molecules bound at each end of the antiparallel dimer. […] There was clear density for each c-di-GMP molecule. b Close up of the GlgX-c-di-GMP binding interaction. Key residues mediating contacts to the c-di-GMP are shown as sticks and labeled. Hydrogen bonds from GlgX residues that specify binding to the guanine are indicated by yellow dashed lines. c Fluorescence polarization (FP) binding isotherm showing interaction of GlgX, GlgXE47A-R49A and GlgXR438A-R579A for F-c-di-GMP in red, green and blue respectively. Also shown is the binding isotherm for GlgX binding to F-c-di-AMP in black. […] The y-axis and x-axis are millipolarization (mP) units and GlgX concentration (μM), respectively. Shown are representative binding curves for each. The experiments were performed in technical triplicates and the error between measurements reported. […]
Thus, we used this F-tagged c-di-GMP in fluorescence polarization (FP) studies to quantify the interaction between GlgX and c-di-GMP. […] To ensure that the presence of the fluorescent tag was not impacting the GlgX interaction with c-di-GMP we used microscale thermophoresis (MST) to quantify c-di-GMP binding to GlgX. […]
(In general: In fluorescence polarisation assays a small probe gives low polarisation when free and higher when bound to something large.)

T1 sequence (P15067 whole entry): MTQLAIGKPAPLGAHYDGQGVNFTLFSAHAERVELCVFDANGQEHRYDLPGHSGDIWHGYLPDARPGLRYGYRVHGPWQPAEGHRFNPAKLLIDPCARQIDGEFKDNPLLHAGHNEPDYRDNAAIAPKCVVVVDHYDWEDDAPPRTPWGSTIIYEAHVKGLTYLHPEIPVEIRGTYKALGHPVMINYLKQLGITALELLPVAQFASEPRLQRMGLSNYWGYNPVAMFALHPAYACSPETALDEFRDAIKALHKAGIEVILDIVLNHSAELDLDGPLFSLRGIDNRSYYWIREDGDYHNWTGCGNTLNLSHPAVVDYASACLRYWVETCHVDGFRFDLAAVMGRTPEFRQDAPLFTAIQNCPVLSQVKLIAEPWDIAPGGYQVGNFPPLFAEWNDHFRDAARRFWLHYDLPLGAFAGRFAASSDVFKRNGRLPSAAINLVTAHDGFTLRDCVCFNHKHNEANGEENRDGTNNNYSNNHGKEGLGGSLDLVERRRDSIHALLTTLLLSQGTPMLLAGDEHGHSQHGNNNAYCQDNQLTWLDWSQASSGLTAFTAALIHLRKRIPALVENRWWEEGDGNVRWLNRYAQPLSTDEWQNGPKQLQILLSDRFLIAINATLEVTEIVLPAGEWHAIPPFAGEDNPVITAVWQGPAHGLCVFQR

In the case of `Nc1nc2c(ncn2[C@@H]2O[C@@H]3CO[P@](=O)(O)O[C@H]4[C@@H](O)[C@H](n5cnc6c(=O)[nH]c(N)nc65)O[C@@H]4CO[P@](=O)(O)O[C@H]3[C@H]2O)c(=O)[nH]1` [c-di-GMP, bis-(3′−5′)-cyclic diguanosine monophosphate], the “binding of [32P]-c-di-GMP in DRaCALA” value in assay [1] is listed as “did not detect any interactions”. Further, the “binding of c-di-GMP in DRaCALA” value in assay [2] is on record as “does not bind c-di-GMP”. For the same molecule, the “binding to mutant in FP” value in assay [3] is listed as “weak, nonsaturable binding”.
